We go through 19 molecules from article PMC6930555, “Design, Synthesis, and Structural Characterization of Novel Diazaphenothiazines with 1,2,3-Triazole Substituents as Promising Antiproliferative Agents” (Molecules, 2019).

Where two headings read alike, the source gives them in different places.

Broadly, the IC50 is the concentration at which inhibition is half-maximal.

The subject of one test is breast cancer MDA-MB231. As to the kind of experiment: WST-1 cell proliferation assay, MDA-MB231. The format is cell-based, human. The settings on record: MDA-MB231, WST-1, 72 h, read-out: Anticancer Activity IC50 MDA-MB231. As for the experimental part: (§1) Encouraged by our previous promising results in the field of antiproliferative activity of dipyridothiazines as well as by the good anticancer activity of the 1,2,3-triazoles, we decided to combine the biological potentials of dipyridothiazines and triazole moieties, hoping to obtain compounds with better activity. The antiproliferative activity of all 20 new 10-substituted 1,2,3-triazole derivatives of dipyridothiazines was tested in vitro against cancer cell lines: glioblastoma SNB-19, colorectal carcinoma Caco-2, lung cancer A549, and breast cancer MDA-MB231 using the WST-1 assay. Normal human fibroblasts NHDF were used as a control.
(§2) All dipyridothiazines with 1,2,3-triazole substituents (1–4)b–f were evaluated for their anticancer activity using four cultured cell lines: SNB-19 (human glioblastoma, DSMZ—German Collection of Microorganisms and Cell Cultures, Braunschweig, Germany), Caco-2 (human colon adenocarcinoma, DSMZ—German Collection of Microorganisms and Cell Cultures, Braunschweig, Germany), A549 (human lung carcinoma, ATCC, Manassas, VA, USA) and MDA-MB231 (human breast adenocarcinoma, ATCC, Manassas, VA, USA), and NHDF (human dermal fibroblast cell line, ATCC, Manassas, VA, USA. The cultured cells were kept at 37 °C and 5% CO2. The cells were seeded (1 × 10^4 cells/well/100 µL DMEM supplemented with 10% FCS and streptomycin and penicillin) using 96-well plates (Corning). The cells were counted in a hemocytometer (Burker’s chamber) using a phase contrast Olympus IX50 microscope equipped with Sony SSC-DC58 AP camera and Olympus DP10 digital camera.
(§3) Antiproliferative effect of the obtained compounds on the cancer cells was determined using the cell proliferation reagent WST-1 assay (Roche Diagnostics, Mannheim, Germany). This assay is based on the viable cell’s ability to cleave the bright red-colored tetrazolium salt (2-(4-iodophenyl)-3-(4-nitrophenyl)-5-(2,4-disulfophenyl)-2H-tetrazolium, monosodium salt) to dark red soluble formazan by cellular enzymes. An increase in the amount of formazan dye formed correlates to the number of metabolically active cells in the culture. The formazan dye produced by metabolically active cells is quantified by a scanning ELISA reader by measuring the absorbance of the dye solution at appropriate wavelengths. The examined cells were exposed to the tested compounds for 72 h at various concentrations between 0.1 μg/mL and 100 μg/mL (prepared initially at concentration of 1 mg/mL in DMSO). The cells were incubated with WST-1 (10 μL) for 1 h and the absorbance of the samples against a background control was measured at 450 nm using a microplate reader with a reference wavelength at 600 nm. The results are expressed as means of at least two independent experiments performed in triplicate.
(Tetrazolium dyes change colour on reduction, which living cells bring about.)

In test [1] the test system is normal human fibroblasts NHDF. As to the kind of experiment: WST-1 cytotoxicity assay, normal fibroblasts NHDF. In kind it is cell-based. The following applies: normal human fibroblasts NHDF, WST-1, 72 h. As for the experimental part:
as §1, §2, §3

A further test deals with lung cancer A549. As to the kind of experiment: WST-1 cell proliferation assay, A549. In kind it is cell-based, human. The settings on record: A549, WST-1, 72 h, read-out: Anticancer Activity IC50 A549. Here is the method: as §1, §2, §3
Another test relates to glioblastoma SNB-19. As to the kind of experiment: WST-1 cell proliferation assay, SNB-19. The format is cell-based, human. The following applies: SNB-19, WST-1, 72 h, read-out: Anticancer Activity IC50 SNB-19. As for the experimental part: as §1, §2, §3
The subject of test [2] is colorectal carcinoma Caco-2. As to the kind of experiment: WST-1 cell proliferation assay, Caco-2. The format is cell-based. The settings on record: Homo sapiens; Caco-2, WST-1, 72 h; read-out: Anticancer Activity IC50 Caco-2. Here is the method: (§4) The antiproliferative activity of all 20 new 10-substituted 1,2,3-triazole derivatives of dipyridothiazines was tested in vitro against cancer cell lines: glioblastoma SNB-19, colorectal carcinoma Caco-2, lung cancer A549, and breast cancer MDA-MB231 using the WST-1 assay. Normal human fibroblasts NHDF were used as a control.
as §2, §3

For test [3], the system named is SNB-19, Caco-2, A549 and MDA-MB231 cancer cell lines. As to the kind of experiment: WST-1 assay, summary over the cancer cell line panel. In kind it is cell-based, human. The settings on record: Homo sapiens. As for the experimental part: as §4, §2, §3
The mark [4] stands for this setting: span over SNB-19, Caco-2, A549, MDA-MB231, read-out: IC50 across all investigated cancer cell lines.

`Clc1ccc(Cn2cc(CN3c4ccncc4Sc4ncccc43)nn2)cc1` [4d, 10-[(1-(4-Chlorobenzyl)-1H-1,2,3-triazol-4-yl)methyl]-3,6-diazaphenothiazine]: the half-inhibitory concentration (IC50) with breast cancer MDA-MB231 (Homo sapiens, MDA-MB-231) was 13.4 µM; in test [1] it was above 100 µM; with lung cancer A549 (Homo sapiens), 54 µM; in the test on glioblastoma SNB-19 (Homo sapiens), 14.9 µM; in test [2], 42.1 µM.
`Fc1ccc(Cn2cc(CN3c4cccnc4Sc4cccnc43)nn2)cc1` [1c, 10-[(1-(4-Fluorobenzyl)-1H-1,2,3-triazol-4-yl)methyl]-1,6-diazaphenothiazine]: the half-inhibitory concentration (IC50) was 7.82 µM in the test on breast cancer MDA-MB231 (Homo sapiens, MDA-MB-231); above 100 µM in test [1]; 29.1 µM in the test on lung cancer A549 (Homo sapiens); 5.72 µM in the test with glioblastoma SNB-19 (Homo sapiens); 5.72 to 7.82 µM in test [3] (span over SNB-19 and MDA-MB231, read-out: IC50 in relation to SNB-19 and MDA-MB231 cell lines); 8.1 µM in test [2].
Take `c1ccc(Cn2cc(CN3c4ccncc4Sc4ccncc43)nn2)cc1` [3b, 10-[(1-Benzyl-1H-1,2,3-triazol-4-yl)-methyl]-2,7-diazaphenothiazine]: the concentration for half-maximal inhibition (IC50) in the test on breast cancer MDA-MB231 (Homo sapiens, MDA-MB-231) was 0.77 µM; in test [1], 22.7 µM; in the test on lung cancer A549 (Homo sapiens), 0.26 µM; in the test on glioblastoma SNB-19 (Homo sapiens) it was 2.04 µM; in test [3] (setting [4]), 0.26 to 2.07 µM; in test [2], 0.26 µM.
In the case of `c1ccc(Cn2cc(CN3c4cnccc4Sc4cccnc43)nn2)cc1` [2b, 10-[(1-Benzyl-1H-1,2,3-triazol-4-yl)-methyl]-1,8-diazaphenothiazine], the IC50 was 56.3 µM in the test with breast cancer MDA-MB231 (Homo sapiens, MDA-MB-231); above 100 µM in test [1]; 77.4 µM in the test on lung cancer A549 (Homo sapiens); 41.9 µM in the test on glioblastoma SNB-19 (Homo sapiens); above 100 µM in test [2].
For the molecule `c1ccc(Cn2cc(CN3c4ccncc4Sc4ncccc43)nn2)cc1` [4b, 10-[(1-Benzyl-1H-1,2,3-triazol-4-yl)-methyl]-3,6-diazaphenothiazine], the half-maximal inhibitory concentration (IC50) in the test on breast cancer MDA-MB231 (Homo sapiens, MDA-MB-231) is 7.87 µM; in test [1] it was above 100 µM; with lung cancer A549 (Homo sapiens), 60.6 µM; with glioblastoma SNB-19 (Homo sapiens), 20.8 µM; in test [2], 57.9 µM.
The like results for `Clc1ccc(Cn2cc(CN3c4ccncc4Sc4ccncc43)nn2)cc1` [3d, 10-[(1-(4-Chlorobenzyl)-1H-1,2,3-triazol-4-yl)methyl]-2,7-diazaphenothiazine] were, in that order, 4.26 µM, above 100 µM, 17.9 µM, 31.3 µM and 33.1 µM.
The like results for `c1ccc(Cn2cc(CN3c4cccnc4Sc4cccnc43)nn2)cc1` [1b, 10-[(1-Benzyl-1H-1,2,3-triazol-4-yl)-methyl]-1,6-diazaphenothiazine] were, in that order, 13.7 µM, above 100 µM, above 100 µM, 69.2 µM and 19.9 ± 2.71 µM.
Take `c1ccc(SCn2cc(CN3c4cnccc4Sc4cccnc43)nn2)cc1` [2f, 10-[(1-Phenylthiomethyl-1H-1,2,3-triazolo-4-ylo)methyl]-1,8-diazaphenothiazine]: the 50% inhibitory concentration (IC50) with breast cancer MDA-MB231 (Homo sapiens, MDA-MB-231) is 12 µM; in test [1] it was above 100 µM; in the test with lung cancer A549 (Homo sapiens) it was 46.8 µM; in the test with glioblastoma SNB-19 (Homo sapiens), 56.3 µM; in test [2], 32.5 µM.
`N.N.[Cl][Pt][Cl]` [Cisplatin, reference compound]: the 50% inhibitory concentration (IC50) in the test with breast cancer MDA-MB231 turned out to be 3.13 µM; in test [1], 63.9 µM; in the test with lung cancer A549, 0.6 µM; with glioblastoma SNB-19, 3.73 µM.
For `N#Cc1ccc(Cn2cc(CN3c4cnccc4Sc4cccnc43)nn2)cc1` [2e, 10-[(1-(4-Cyanobenzyl)-1H-1,2,3-triazol-4-yl)methyl]-1,8-diazaphenothiazine], the IC50 is 12 µM with breast cancer MDA-MB231 (Homo sapiens, MDA-MB-231); above 100 µM in test [1]; 63.8 µM with lung cancer A549 (Homo sapiens); 10.6 µM in the test on glioblastoma SNB-19 (Homo sapiens); 34.4 µM in test [2].
For the molecule `Clc1ccc(Cn2cc(CN3c4cnccc4Sc4cccnc43)nn2)cc1` [2d, 10-[(1-(4-Chlorobenzyl)-1H-1,2,3-triazol-4-yl)methyl]-1,8-diazaphenothiazine], the 50% inhibitory concentration (IC50) came out at 4.71 µM with breast cancer MDA-MB231 (Homo sapiens, MDA-MB-231); 43 µM in test [1]; 1.82 µM in the test on lung cancer A549 (Homo sapiens); 59.9 µM in the test with glioblastoma SNB-19 (Homo sapiens); 11.4 µM in test [2].
Take `N#Cc1ccc(Cn2cc(CN3c4cccnc4Sc4cccnc43)nn2)cc1` [1e, 10-[(1-(4-Cyanobenzyl)-1H-1,2,3-triazol-4-yl)methyl]-1,6-diazaphenothiazine]: the IC50 is 25.8 µM in the test on breast cancer MDA-MB231 (Homo sapiens, MDA-MB-231); above 100 µM in test [1]; 1.79 µM in the test on lung cancer A549 (Homo sapiens); 9.65 µM in the test with glioblastoma SNB-19 (Homo sapiens); 79.7 µM in test [2].
The corresponding values for `c1ccc(SCn2cc(CN3c4ccncc4Sc4ncccc43)nn2)cc1` [4f, 10-[(1-Phenylthiomethyl-1H-1,2,3-triazolo-4-ylo)methyl]-3,6-diazaphenothiazine] are 44.3 µM, above 100 µM, above 100 µM, 44.8 µM and 67.5 µM.
On to `Fc1ccc(Cn2cc(CN3c4ccncc4Sc4ncccc43)nn2)cc1` [4c, 10-[(1-(4-Fluorobenzyl)-1H-1,2,3-triazol-4-yl)methyl]-3,6-diazaphenothiazine], for which the IC50 is 1.97 µM in the test on breast cancer MDA-MB231 (Homo sapiens, MDA-MB-231); 2.85 µM in test [1]; 0.25 µM in the test on lung cancer A549 (Homo sapiens); 6.25 µM in the test with glioblastoma SNB-19 (Homo sapiens); 0.25 to 6.25 µM in test [3] (setting [4]); 0.25 µM in test [2].
Take `N#Cc1ccc(Cn2cc(CN3c4ccncc4Sc4ncccc43)nn2)cc1` [4e, 10-[(1-(4-Cyanobenzyl)-1H-1,2,3-triazol-4-yl)methyl]-3,6-diazaphenothiazine]: the IC50 with breast cancer MDA-MB231 (Homo sapiens, MDA-MB-231) was 38.8 µM; in test [1], above 100 µM; in the test on lung cancer A549 (Homo sapiens) it was 42.7 µM; in the test with glioblastoma SNB-19 (Homo sapiens), 53.6 µM; in test [2] it was 74.3 µM.
The like results for `c1ccc(SCn2cc(CN3c4cccnc4Sc4cccnc43)nn2)cc1` [1f, 10-[(1-Phenylthiomethyl-1H-1,2,3-triazolo-4-ylo)methyl]-1,6-diazaphenothiazine] were, in that order, 68.7 µM, above 100 µM, above 100 µM, above 100 µM and above 100 µM.
Turning to `N#Cc1ccc(Cn2cc(CN3c4ccncc4Sc4ccncc43)nn2)cc1` [3e, 10-[(1-(4-Cyanobenzyl)-1H-1,2,3-triazol-4-yl)methyl]-2,7-diazaphenothiazine], the IC50 was determined as 3.5 µM in the test with breast cancer MDA-MB231 (Homo sapiens, MDA-MB-231); 49.5 µM in test [1]; 30.1 µM with lung cancer A549 (Homo sapiens); 26.8 µM with glioblastoma SNB-19 (Homo sapiens); 10 µM in test [2].
Consider `Fc1ccc(Cn2cc(CN3c4ccncc4Sc4ccncc43)nn2)cc1` [3c, 10-[(1-(4-Fluorobenzyl)-1H-1,2,3-triazol-4-yl)methyl]-2,7-diazaphenothiazine], for which the IC50 was determined as 25.7 µM with breast cancer MDA-MB231 (Homo sapiens, MDA-MB-231); 70.6 µM in test [1]; 27.2 µM in the test on lung cancer A549 (Homo sapiens); 57.9 µM in the test with glioblastoma SNB-19 (Homo sapiens); 29.9 µM in test [2].
The like results for `Fc1ccc(Cn2cc(CN3c4cnccc4Sc4cccnc43)nn2)cc1` [2c, 10-[(1-(4-Fluorobenzyl)-1H-1,2,3-triazol-4-yl)methyl]-1,8-diazaphenothiazine] were, in that order, 9.21 µM, above 100 µM, 60.2 µM, 55.2 µM and 43.6 µM.
